Assay results published in article PMC11459966, “Oral pharmacokinetics and efficacy of oral phospholipid remdesivir nucleoside prodrugs against SARS-CoV-2 in mice” (Antimicrobial Agents and Chemotherapy, 2024).
Where two headings read alike, the source gives them in different places. Marks after values point to notes of the source that are not given here.

How the values were obtained:
[1] = system: SARS-CoV-2 B.1.351 (Beta variant); assay type: in vivo, BALB/c mice; conditions: for effect on lung titers at day 2 / effect on lung titers at 4 dpi (significant reduction) / lung histopathology scores at 4 dpi / weight loss at 2 dpi compared to vehicle-treated mice / effect on lung titers at day 4 post-infection / lung titers vs limit of detection at day 4 post-infection: prophylaxis; for effect on lung titers at day 2: EIDD-2801 100 mg/kg BID, GS-5245 10 or 30 mg/kg BID; for effect on lung titers at day 2 / effect on lung titers at 4 dpi (significant reduction): PO; for effect on lung titers at 4 dpi (significant reduction): comparators: EIDD-2801 100 mg/kg BID, remdesivir 25 mg/kg BID; for effect on lung titers at 4 dpi (significant reduction) / weight loss at 2 dpi compared to vehicle-treated mice: obeldesivir 10 or 30 mg/kg BID; for lung histopathology scores at 4 dpi: GS-5245 30 mg/kg BID, V2053 8 mg/kg, H&E; for weight loss at 2 dpi compared to vehicle-treated mice: V2043 80 mg/kg, V2053 27 and 80 mg/kg, V2067 all doses; for effect on lung titers at day 4 post-infection: 27 mg/kg or 80 mg/kg once daily PO; for antiviral effects on lung titers at 2 dpi: prophylaxis, 8, 27 or 80 mg/kg once daily PO; for reduction of lung titers: mouse, in vivo, po, 80 mg/kg; for lung titers vs limit of detection at day 4 post-infection: once daily PO, for V2067 even at 8 mg/kg
[2] = system: SARS-CoV-2 B.1.351 (Beta variant); assay type: in vivo, BALB/c mice; conditions: for lung titers reduced to below the limit of detection at 4 dpi: GS-5245 10 mg/kg BID, remdesivir 25 mg/kg BID; for lung infectious units vs limit of detection at 4 dpi: V2043 and V2067 27 and 80 mg/kg, V2053 80 mg/kg once daily, EIDD-2801 100 mg/kg BID, GS-5245 30 mg/kg BID; for Daily dose required to reach below the limit of detection on day 4 post-infection / Molar daily dose required to reach below the limit of detection on day 4 post-infection / reduction of lung infectious units compared to vehicle: mouse, in vivo; for level of infectious SARS-CoV-2 in the lung at 2 dpi compared to vehicle: V2043, V2053, V2067 at 27 or 80 mg/kg; for reduction of lung infectious units compared to vehicle: po, 80 mg/kg
[3] = daily dose derived from prophylaxis experiment (Fig. 4)

Structure (SMILES) | effect on lung titers at day 2 [1] | effect on lung titers at 4 dpi (significant reduction) [1] | lung histopathology scores at 4 dpi [1] | weight loss at 2 dpi compared to vehicle-treated mice [1] | lung titers reduced to below the limit of detection at 4 dpi [2] | lung infectious units vs limit of detection at 4 dpi [2] | Daily dose required to reach below the limit of detection on day 4 post-infection [2] | Molar daily dose required to reach below the limit of detection on day 4 post-infection [2] | effect on lung titers at day 4 post-infection [1] | antiviral effects on lung titers at 2 dpi [1] | level of infectious SARS-CoV-2 in the lung at 2 dpi compared to vehicle [2] | reduction of lung infectious units compared to vehicle [2] | reduction of lung titers [1] | lung titers vs limit of detection at day 4 post-infection [1] | Daily dose required to reach below the limit of detection on day 4 post-infection [1, 3] | Fold ∆ vs MPV (molar daily dose) [1, 3] | Fold ∆ vs OBDV (molar daily dose) [1, 3] | Molar daily dose required to reach below the limit of detection on day 4 post-infection [1, 3] | Fold ∆ vs MPV (molar daily dose) ([2]; therapeutic model) | Fold ∆ vs OBDV (molar daily dose) ([2]; therapeutic model)
CC(C)C(=O)OC[C@H]1O[C@@](C#N)(c2ccc3c(N)ncnn23)[C@H](O)[C@@H]1O [Obeldesivir GS-5245, reference compound] | significantly reduced lung titers | did not | small but significant reductions | lost less weight | did not | reduced lung titers to below the limit of detection | 60 mg/kg | 166 µmol/kg |  |  |  |  |  |  |  |  |  |  |  | 
CCCCCCCCC=CCCCCCCCCOCC(COP(=O)(O)OCC1OC(C#N)(c2ccc3c(N)ncnn23)C(O)C1O)OCc1ccc(OC)c(F)c1 (stereo not drawn) [Compound V2053] |  |  | small but significant reductions | lost less weight |  | below the limit of detection in all animals |  |  | significantly reduced lung titers | dose-dependent antiviral effects | significantly reduced | 3.0 log10 |  |  |  |  |  |  |  | 
CC(C)C(=O)OC[C@H]1O[C@@H](n2ccc(NO)nc2=O)[C@H](O)[C@@H]1O [EIDD-2801, reference compound] | significantly reduced lung titers | significantly reduced lung titers |  |  |  | reduced lung titers to below the limit of detection | 200 mg/kg | 607 µmol/kg |  |  |  |  |  |  |  |  |  |  |  | 
CCCCCCCCCCCCCCCCCCOC[C@H](COP(=O)(O)OC[C@H]1O[C@@](C#N)(c2ccc3c(N)ncnn23)[C@H](O)[C@@H]1O)OCc1ccccc1 [Compound V2043, 1-O-octadecyl-2-O-benzyl-sn-glyceryl-P-RVn] |  |  |  | lost less weight |  | below the limit of detection in all animals | 27 mg/kg | 34.3 µmol/kg | significantly reduced lung titers | dose-dependent antiviral effects | significantly reduced | 3.1 log10 | 2.29 Log10 | below the limit of detection in all animals |  |  |  |  |  | 
CCCCCCCCCCCCCCCCCCOCC(COP(=O)(O)OC[C@H]1O[C@@](C#N)(c2ccc3c(N)ncnn23)[C@H](O)[C@@H]1O)OCc1ccc(C#N)cc1 (stereo partly drawn) [Compound V2067] |  |  |  | lost less weight |  | below the limit of detection in all animals | 27 mg/kg | 33.2 µmol/kg | significantly reduced lung titers | dose-dependent antiviral effects | significantly reduced | 3.2 log10 | 1.83 Log10 | below the limit of detection in all animals | 8^a mg/kg | 61.9× | 16.9× | 9.8 µmol/kg | 18.2× | 5.0×
CCC(CC)COC(=O)[C@H](C)N[P@](=O)(OC[C@H]1O[C@@](C#N)(c2ccc3c(N)ncnn23)[C@H](O)[C@@H]1O)Oc1ccccc1 [remdesivir] |  | did not |  |  | did not |  |  |  |  |  |  |  |  |  |  |  |  |  |  | 
